# Earlier results, collected in publication PMC11966747, “Next Generation Risk Assessment of Acute Neurotoxicity from Organophosphate Exposures Using the In Vitro–In Silico Derived Dietary Comparator Ratio” (Environmental Science & Technology, 2025).
# Where two headings read alike, the source gives them in different places.
# Biological target: erythrocyte AChE (Homo sapiens, UniProt P22303)
# Settings: cited from earlier work; for reported or expected adverse health outcome: human, ref Table S2
# [1] = 1714 mg/kg BW (120 g) acute oral, 13 males and 2 females, ref Moon et al. 2015
# erythrocyte AChE, sequence (P22303 32-617 isoform P22303-2 limits assumed): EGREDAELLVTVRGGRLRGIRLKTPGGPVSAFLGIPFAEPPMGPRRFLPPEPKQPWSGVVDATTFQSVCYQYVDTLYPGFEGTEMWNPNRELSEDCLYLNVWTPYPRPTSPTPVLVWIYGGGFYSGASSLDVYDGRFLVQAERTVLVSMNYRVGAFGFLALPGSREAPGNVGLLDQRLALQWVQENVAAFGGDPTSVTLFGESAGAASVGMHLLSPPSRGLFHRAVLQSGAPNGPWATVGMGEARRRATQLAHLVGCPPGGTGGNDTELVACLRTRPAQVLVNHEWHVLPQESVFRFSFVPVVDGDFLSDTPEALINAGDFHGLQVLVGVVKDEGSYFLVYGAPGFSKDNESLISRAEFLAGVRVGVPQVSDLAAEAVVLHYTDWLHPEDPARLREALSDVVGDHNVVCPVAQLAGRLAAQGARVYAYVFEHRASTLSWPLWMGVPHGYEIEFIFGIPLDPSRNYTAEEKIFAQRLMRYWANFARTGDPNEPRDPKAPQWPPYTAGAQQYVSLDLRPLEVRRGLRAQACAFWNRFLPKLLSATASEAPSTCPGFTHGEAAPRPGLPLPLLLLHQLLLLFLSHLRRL
smiles,measurement,setting,value
COP(=S)(OC)Oc1ccc([N+](=O)[O-])c(C)c1 [fenitrothion],Reported concomitant effects (signs and symptoms),"357 mg/kg BW (25 g) acute oral, person eleven, ref Yoshida and Kuroki. 2010 (original data of Koyama et al. 2006)",Toxic symptoms occurred
same,Reported concomitant effects (signs and symptoms),"357 mg/kg BW (25 g) acute oral, person twelve, ref Yoshida and Kuroki. 2010 (original data of Koyama et al. 2006)",Toxic symptoms occurred
same,Reported concomitant effects (signs and symptoms),"357 mg/kg BW (25 g) acute oral, person, ref Martinez-Chuecos et al. 1992",Toxic symptoms occurred
same,Reported concomitant effects (signs and symptoms),"429 mg/kg BW (30 g) acute oral, person, ref Yoshida et al. 1987",Toxic symptoms occurred
same,Reported concomitant effects (signs and symptoms),"429 mg/kg BW (30.0 ± 19.7 g) acute oral, 4 males and 6 females, ref Inoue et al. 2008",Toxic symptoms occurred
same,Reported concomitant effects (signs and symptoms),"500 mg/kg BW (35 g) acute oral, person fourteen, ref Yoshida and Kuroki. 2010 (original data of Koyama et al. 2006)",Toxic symptoms occurred
same,Reported concomitant effects (signs and symptoms),"500 mg/kg BW (35 g) acute oral, person two, ref Yoshida and Kuroki. 2010 (original data of Koyama et al. 2006)",Toxic symptoms occurred
same,Reported concomitant effects (signs and symptoms),"536 mg/kg BW (37.5 g) acute oral, person, ref Yoshida and Kuroki. 2010 (original data of Koyama et al. 2006)",Toxic symptoms occurred
same,Reported concomitant effects (signs and symptoms),"571 mg/kg BW (40 g) acute oral, person, ref Park and Choi. 2017",Toxic symptoms occurred
same,Reported concomitant effects (signs and symptoms),"714 mg/kg BW (50 g) acute oral, person eight, ref Yoshida and Kuroki. 2010 (original data of Koyama et al. 2006)",Toxic symptoms occurred
same,Reported concomitant effects (signs and symptoms),"714 mg/kg BW (50 g) acute oral, person four, ref Yoshida and Kuroki. 2010 (original data of Koyama et al. 2006)",Toxic symptoms occurred
same,Reported concomitant effects (signs and symptoms),"714 mg/kg BW (50 g) acute oral, person nine, ref Yoshida and Kuroki. 2010 (original data of Koyama et al. 2006)",Toxic symptoms occurred
same,Reported concomitant effects (signs and symptoms),"714 mg/kg BW (50 g) acute oral, person one, ref Yoshida and Kuroki. 2010 (original data of Koyama et al. 2006)",Toxic symptoms occurred
same,Reported concomitant effects (signs and symptoms),"714 mg/kg BW (50 g) acute oral, person ten, ref Yoshida and Kuroki. 2010 (original data of Koyama et al. 2006)",Toxic symptoms occurred
same,Reported concomitant effects (signs and symptoms),"714 mg/kg BW (50 g) acute oral, person thirteen, ref Yoshida and Kuroki. 2010 (original data of Koyama et al. 2006)",Toxic symptoms occurred
same,Reported concomitant effects (signs and symptoms),[1],toxic symptoms occurred
same,Reported erythrocyte AChE activity/inhibition,[1],Significantly decreased
same,Reported concomitant effects (signs and symptoms),"1786 mg/kg BW (125.0 ± 35.4 g) acute oral, one male and one female, ref Inoue et al. 2008",Toxic symptoms occurred
same,reported or expected adverse health outcome,"single oral 0.042 mg/kg BW, 0.042 mg/kg",negative
same,reported or expected adverse health outcome,"single oral 0.042 mg/kg BW, listed as Fenitrothion, 0.042 mg/kg",No
same,reported or expected adverse health outcome,"single oral 0.06 mg/kg BW, 0.06 mg/kg",negative
same,reported or expected adverse health outcome,"single oral 0.06 mg/kg BW, listed as Fenitrothion, 0.06 mg/kg",No
same,reported or expected adverse health outcome,"single oral 0.083 mg/kg BW, 0.083 mg/kg",negative
same,reported or expected adverse health outcome,"single oral 0.083 mg/kg BW, listed as Fenitrothion, 0.083 mg/kg",No
same,reported or expected adverse health outcome,"single oral 0.09 mg/kg BW, 0.09 mg/kg",negative
same,reported or expected adverse health outcome,"single oral 0.09 mg/kg BW, listed as Fenitrothion, 0.09 mg/kg",No
same,reported or expected adverse health outcome,"single oral 0.17 mg/kg BW, 0.17 mg/kg",negative
same,reported or expected adverse health outcome,"single oral 0.17 mg/kg BW, listed as Fenitrothion, 0.17 mg/kg",No
same,reported or expected adverse health outcome,"single oral 0.18 mg/kg BW, 0.18 mg/kg",negative
same,reported or expected adverse health outcome,"single oral 0.18 mg/kg BW, listed as Fenitrothion, 0.18 mg/kg",No
same,reported or expected adverse health outcome,"single oral 0.25 mg/kg BW, 0.25 mg/kg",negative
same,reported or expected adverse health outcome,"single oral 0.25 mg/kg BW, listed as Fenitrothion, 0.25 mg/kg",No
same,reported or expected adverse health outcome,"single oral 0.33 mg/kg BW, 0.33 mg/kg",negative
same,reported or expected adverse health outcome,"single oral 0.33 mg/kg BW, listed as Fenitrothion, 0.33 mg/kg",No
same,reported or expected adverse health outcome,"single oral 0.36 mg/kg BW, 0.36 mg/kg",negative
same,reported or expected adverse health outcome,"single oral 0.36 mg/kg BW, listed as Fenitrothion, 0.36 mg/kg",No
same,reported or expected adverse health outcome,"single oral 36 mg/kg BW, 36 mg/kg",positive
same,reported or expected adverse health outcome,"single oral 36 mg/kg BW, listed as Fenitrothion, 36 mg/kg",Yes
same,reported or expected adverse health outcome,"single oral 71 mg/kg BW, 71 mg/kg",positive
same,reported or expected adverse health outcome,"single oral 71 mg/kg BW, listed as Fenitrothion, 71 mg/kg",Yes
same,reported or expected adverse health outcome,"single oral 143 mg/kg BW, 143 mg/kg",positive
same,reported or expected adverse health outcome,"single oral 143 mg/kg BW, listed as Fenitrothion, 143 mg/kg",Yes
same,reported or expected adverse health outcome,"single oral 214 mg/kg BW, 214 mg/kg",positive
same,reported or expected adverse health outcome,"single oral 214 mg/kg BW, listed as Fenitrothion, 214 mg/kg",Yes
same,reported or expected adverse health outcome,"single oral 357 mg/kg BW, 357 mg/kg",positive
same,reported or expected adverse health outcome,"single oral 357 mg/kg BW, listed as Fenitrothion, 357 mg/kg",Yes
same,reported or expected adverse health outcome,"single oral 429 mg/kg BW, 429 mg/kg",positive
same,reported or expected adverse health outcome,"single oral 429 mg/kg BW, listed as Fenitrothion, 429 mg/kg",Yes
same,reported or expected adverse health outcome,"single oral 500 mg/kg BW, 500 mg/kg",positive
same,reported or expected adverse health outcome,"single oral 500 mg/kg BW, listed as Fenitrothion, 500 mg/kg",Yes
same,reported or expected adverse health outcome,"single oral 536 mg/kg BW, 536 mg/kg",positive
same,reported or expected adverse health outcome,"single oral 536 mg/kg BW, listed as Fenitrothion, 536 mg/kg",Yes
same,reported or expected adverse health outcome,"single oral 571 mg/kg BW, 571 mg/kg",positive
same,reported or expected adverse health outcome,"single oral 571 mg/kg BW, listed as Fenitrothion, 571 mg/kg",Yes
same,reported or expected adverse health outcome,"single oral 1714 mg/kg BW, 1714 mg/kg",positive
same,reported or expected adverse health outcome,"single oral 1714 mg/kg BW, listed as Fenitrothion, 1714 mg/kg",Yes
same,reported or expected adverse health outcome,"single oral 1786 mg/kg BW, 1786 mg/kg",positive
same,reported or expected adverse health outcome,"single oral 1786 mg/kg BW, listed as Fenitrothion, 1786 mg/kg",Yes
